What was measured:
GrA [1] = target: T1, GrA (Homo sapiens, UniProt P12544); assay: Second-order inhibition rate constant kobs/I toward GrA, pseudo-first-order conditions; format: biochemical; settings: GrA; versus 2000 M^–1 s^–1
T1 construct: made in house; host or cells: Pichia pastoris
T1 sequence (P12544 29-262): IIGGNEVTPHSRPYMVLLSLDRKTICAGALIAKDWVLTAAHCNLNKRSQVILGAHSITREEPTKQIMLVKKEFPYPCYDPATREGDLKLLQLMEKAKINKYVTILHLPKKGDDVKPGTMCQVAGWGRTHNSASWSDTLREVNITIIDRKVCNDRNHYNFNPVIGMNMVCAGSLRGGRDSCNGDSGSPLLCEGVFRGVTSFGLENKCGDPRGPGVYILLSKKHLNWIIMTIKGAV
Experimental: We calculated the apparent second-order rate constants for inhibition (kobs(app)/I) of GrA-mediated SK15I under pseudo first-order conditions by serially diluting the new inhibitor in the range of 714–333 nM with a constant optimal substrate (SK15) concentration of 10 μM (Figure 3B).
The second-order inhibition rate constant (kobs/I expressed in M^–1 s^–1) toward GrA was measured under pseudo-first-order kinetic conditions. Ten microliters of substrate (SK15) was mixed with varying inhibitor or probe concentrations and incubated at 37 °C for 15 min. […] Experiments are presented as the average of at least three experiments with standard deviation.

GrA in NK92 cells = assay: SK15.5 cell membrane permeability assay / GrA labeling in live NK92 cells; format: cell-based, human; settings: SK15I 10 μM, 1 h, prior to 1 μM SK15.5
Experimental: (B) SK15.5 probe cell permeability. […] The results represent two biological replicates.
We noticed a strongly labeled species within 30 min, and the intensity increased until 2 h (Figure 5B). […] As an additional control, immunolabeling was performed and confirmed the selective binding of the probe with GrA (for full size blots, please see Figure S3).
As a control, GrA was preinhibited with 10 μM (final concentration) SK15I and incubated for 1 h at 37 °C, and untreated samples were simultaneously incubated. At the end of every time point, the cells were centrifuged, washed twice with DPBS, centrifuged and treated with 100 μL of 1× SDS/DTT solution. Afterward, the samples were sonicated (10 kHz for 10 s) and loaded onto a 4–12% Bis-Tris 10-well gel (Invitrogen). SDS-PAGE was run at 165 V for 37 min, and membrane transfer (10 V, 60 min) was subsequently performed.

GrK = target: T2, GrK (Homo sapiens, UniProt P49863); assay: Residual activity assay, GrK; format: biochemical; settings: 488 nM GrK preincubated with 10 μM compound 30 min 37 °C; 200 μM GrKref
T2 construct: made in house; host or cells: Pichia pastoris
T2 sequence (P49863 27-264): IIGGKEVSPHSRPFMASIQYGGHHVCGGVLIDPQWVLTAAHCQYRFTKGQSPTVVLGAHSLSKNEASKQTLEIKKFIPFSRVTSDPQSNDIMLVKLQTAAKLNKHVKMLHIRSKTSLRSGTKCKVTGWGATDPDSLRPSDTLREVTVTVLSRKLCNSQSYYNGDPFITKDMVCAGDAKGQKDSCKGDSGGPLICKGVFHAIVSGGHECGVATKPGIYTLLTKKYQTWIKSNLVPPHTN
Experimental: (§1) We wondered whether the selectivity of our SK15-based molecules for GrA would be maintained by substrate structure modifications, such as replacing ACC with a diphenyl phosphonate warhead and changing the N-terminus from acetyl to the cyanine derivative Cy5.
(§2) As a control, enzymes without inhibitor and probe were tested.

PR3 = assay: Residual activity assay, PR3; format: biochemical; settings: 3.4 nM PR3 preincubated with 10 μM compound 30 min 37 °C; substrate Ac-Glu(O-Bzl)-Lys(Ac)-Hyp(Bzl)-Nva-ACC
Experimental: as §1, §2

GrB = target: T3, GrB (Homo sapiens, UniProt P10144); assay: Residual activity assay, GrB; format: biochemical; settings: 18 nM GrB preincubated with 10 μM compound 30 min 37 °C; 200 μM GrBref
T3 construct: made in house; host or cells: Pichia pastoris
Experimental: as §1, §2

GrA [2] = target: T1, GrA; assay: In-gel detection of recombinant GrA with SK15.5 (SDS-PAGE); format: binding; settings: SK15I 1 μM, 1 h, 37 °C, then SK15.5 500 nM 1 h
Experimental: Next, we tested the utility of our fluorescent probe for the in-gel detection of active GrA in test samples. […] We then ran a simple SDS-PAGE assay to detect labeled GrA (Figure 4A). […] In our hands, the probe bound to the enzyme, as indicated by the fluorescent 35 kDa species, after the minimal incubation time (5 min). […] The optimal concentration was 500 nM (strong signal) (Figure 4B).
(A) Incubation time of SK15.5 with enzyme optimization. […] (D) GrA in-gel detection in NK92 cell lysates. […] The results are representative of at least 2 replicates.
In contrast to the closely related GrB, GrH, GrM, and GrK, GrA is a homodimer formed by stable disulfide-linked subunits.[26] Since the subunits are oriented in opposite directions, the surrounding area may form an exosite.[26]
In the incubation time optimization assay, the enzyme and probe concentrations were constant (250 nM), and the incubation time ranged from 0 to 120 min. […] Enzyme was incubated with probe in a volume of 80 μL, followed by the reduction with 40 μL of 3 × SDS/DTT for 5 min at 95 °C. Samples were centrifuged (3 min, 4500g), and 40 μL of each sample was run on 4–12% Bis-Tris 10-well gels (Invitrogen). The first well was loaded with 2 μL of the protein marker PageRuler Plus Prestained Protein Ladder (Thermo Scientific). Electrophoresis was conducted at 165 V for 37 min at room temperature. […] Total sample volume was 80 μL, to which 40 μL of 3× SDS/DTT was added and boiled for 5 min at 95 °C. Samples were centrifuged (3 min, 4500g), and 40 μL of each sample was run on 4–12% Bis-Tris 10-well gels (Invitrogen). Each form of the enzyme without SK15.5 and probe itself were run as controls. The first well was loaded with 2 μL of protein marker PageRuler Plus Prestained Protein Ladder (Thermo Scientific). Electrophoresis and membrane transfer were conducted in the same manner as above.

GrM = assay: Residual activity assay, GrM; format: biochemical, human; settings: 74 nM GrM preincubated with 10 μM compound 30 min 37 °C; substrate Ac-Lys-Val-Pro-Leu-ACC
Experimental: as §1, §2

GrA [3] = assay: Residual activity assay, GrA preinhibited with SK15I or SK15.5; format: biochemical, human; settings: substrate SK15; preincubation 30 min, 37 °C
Experimental: as §1, §2

hNE = assay: Residual activity assay, hNE; format: biochemical, human; settings: 3.3 nM hNE preincubated with 10 μM compound 30 min 37 °C; substrate Ac-Arg(NO)2-Glu(Bzl)-Oic-Abu-ACC
Experimental: as §1, §2

MDA-MB-231 cells = settings: MDA-MB-231, 24 h, MTS at 490 nm, 1 nM to 10 μM tested, duplicate

T3 sequence (P10144 21-247): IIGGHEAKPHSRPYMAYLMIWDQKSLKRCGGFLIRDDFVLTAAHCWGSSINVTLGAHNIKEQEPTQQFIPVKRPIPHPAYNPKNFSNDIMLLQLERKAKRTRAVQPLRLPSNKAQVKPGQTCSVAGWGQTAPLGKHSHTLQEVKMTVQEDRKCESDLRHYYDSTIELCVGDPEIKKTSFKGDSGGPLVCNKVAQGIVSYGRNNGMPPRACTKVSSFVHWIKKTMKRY

MeOSuc-Tic-Gly-Oic-Arg^P(OPh)2 [SK15I]
kobs/I relative to the reference inhibitor (GrA [1]): approximately 85 fold
effect of inhibitor pretreatment on SK15.5 probe binding in live cells (in words) (GrA in NK92 cells): substantial decrease in probe binding
inhibition of GrK (GrK): less than 20%
inhibition of PR3 (PR3): less than 20%
inhibition of GrB (GrB): less than 20%
effect of preinhibition with inhibitor on SK15.5 probe binding to GrA (in words) (GrA [2]): prevented probe binding
inhibition of GrM (GrM): less than 20%
residual GrA activity after preinhibition (in words) (GrA [3]): completely blocked
inhibition of hNE (hNE): less than 20%
concentration above which cytotoxic (MDA-MB-231 cells): > 10 µM
